The record followed here is ChEMBL document CHEMBL1201862, “PubChem BioAssay data set” (2004).

Among the test systems are HCT-15; NCI-H23; IGROV-1; BT-549; SF-295; SK-OV-3; U-251; COLO 205; SR; HCC 2998; UO-31; HOP-62; 786-0; A498; NCI-H460; HT-29; RPMI-8226; T47D; HL-60; PC-3.
Experiment in all cases: inhibition of tumour cell growth, NCI panel, 48 h

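Where inhibition never reached the appropriate level, the endpoint shown equals the highest concentration tested. Otherwise, values were interpolated linearly from a five-concentration, 48-hour dose response in 96-well plates. GI50 is the concentration that inhibits growth by half.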 Calls of active or inactive are those of the source. Rule as the data show it: active = GI50 up to about 1.1 µM and inactive = higher. Some results are limits rather than exact numbers.

For `O=C1c2cc([N+](=O)[O-])ccc2-c2cccc(F)c21`, the GI50 was 37.1 µM with HCT-15; > 100 µM (inactive) with NCI-H23; 40.7 µM (inactive) in the assay on IGROV-1; > 100 µM (inactive) with BT-549; > 100 µM (inactive) with SF-295; > 100 µM (inactive) with SK-OV-3. Further, the GI50 is 90.4 µM (inactive) in the assay on U-251; > 100 µM (inactive) in the assay with COLO 205; 30.3 µM (inactive) in the assay on SR; 80.2 µM (inactive) with HCC 2998; 85.3 µM (inactive) in the assay with UO-31; > 100 µM (inactive) with HOP-62. The GI50 in the assay with 786-0 was > 100 µM (inactive); with A498, 65.6 µM (inactive); in the assay on NCI-H460, 89.3 µM (inactive); in the assay on HT-29, > 100 µM (inactive); in the assay with RPMI-8226 it was 64.1 µM (inactive); in the assay on T47D, 23.2 µM (inactive). Moreover, the GI50 was 38.5 µM (inactive) in the assay with HL-60 and 73.8 µM (inactive) in the assay on PC-3.
